PubChem BioAssay (NCI)
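Values below derive from 48-hour exposures of cells grown in 96-well plates, with endpoints linearly interpolated between the two concentrations bracketing the appropriate inhibition level. TGI: total growth inhibition.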

Tests used:
Assay in all cases: NCI tumour cell line growth inhibition, 48 h
ACHN renal = system: ACHN renal
HL-60(TB) leukemia = system: HL-60(TB) leukemia
HT29 colon = system: HT29 colon
KM12 colon = system: KM12 colon
M14 melanoma = system: M14 melanoma
M19-MEL melanoma = system: M19-MEL melanoma
NCI-H23 lung = system: NCI-H23 lung
OVCAR-8 ovarian = system: OVCAR-8 ovarian
RPMI-8226 leukemia = system: RPMI-8226 leukemia
SK-MEL-2 melanoma = system: SK-MEL-2 melanoma
SK-MEL-5 melanoma = system: SK-MEL-5 melanoma
SK-OV-3 ovarian = system: SK-OV-3 ovarian
SN12C renal = system: SN12C renal
TK-10 renal = system: TK-10 renal
786-0 renal = system: 786-0 renal
BT-549 breast = system: BT-549 breast
LOX IMVI melanoma = system: LOX IMVI melanoma
MCF7 breast = system: MCF7 breast
MDA-N = system: MDA-N
NCI/ADR-RES ovarian = system: NCI/ADR-RES ovarian

Row | SMILES | TGI (ACHN renal) [µM] | TGI (HL-60(TB) leukemia) [µM] | TGI (HT29 colon) [µM] | TGI (KM12 colon) [µM] | TGI (M14 melanoma) [µM] | TGI (M19-MEL melanoma) [µM] | TGI (NCI-H23 lung) [µM] | TGI (OVCAR-8 ovarian) [µM] | TGI (RPMI-8226 leukemia) [µM] | TGI (SK-MEL-2 melanoma) [µM] | TGI (SK-MEL-5 melanoma) [µM] | TGI (SK-OV-3 ovarian) [µM] | TGI (SN12C renal) [µM] | TGI (TK-10 renal) [µM] | TGI (786-0 renal) [µM] | TGI (BT-549 breast) [µM] | TGI (LOX IMVI melanoma) [µM] | TGI (MCF7 breast) [µM] | TGI (MDA-N) [µM] | TGI (NCI/ADR-RES ovarian) [µM]
1 | CC(C)OP(=O)(OC(C)C)c1nc(-c2ccccc2)n(-c2ccc([N+](=O)[O-])cc2)n1 | > 100 | > 100 | > 100 | > 100 | > 100 | > 100 | > 100 | > 100 | > 100 | > 100 | > 100 | > 100 | > 100 | > 100 | – | – | – | – | – | –
2 | CCCCCCCCCCCCCCCCCCN(C)C(COC)COP(=O)([O-])OCC[N+](C)(C)C (stereo unspecified) | 26.9 | 4.34 | 9.44 | 3.2 | 13.7 | 12.9 | 23.9 | 26.3 | 5.85 | 35.6 | 29.9 | 25.8 | 19.5 | 4.43 | 3.56 | 26 | 18.8 | 23.7 | 31.1 | > 58.3
3 | O=P1(Oc2ccc(Cl)cc2Cl)Oc2ccc3ccccc3c2-c2c(ccc3ccccc23)O1 | – | 53.8 | > 100 | > 90.4 | – | 47.9 | 75.8 | > 100 | 48 | 36 | > 100 | > 100 | > 100 | – | – | – | 53.9 | > 100 | – | > 100
4 | C=CCN1C(=O)/C(=C\c2cc(C(C)(C)C)c(O)c(C(C)(C)C)c2)NC1=S | 90.2 | 25.1 | 80.7 | 72.6 | 75.4 | – | 94 | > 100 | > 100 | 31.8 | 30.1 | > 100 | > 100 | 73.9 | 55.7 | > 100 | 31.6 | 90.5 | > 100 | > 100
5 | CC1(C)CCc2c(c(N=Nc3ccc(S(N)(=O)=O)cc3)c3ccccc3c2O)O1 | 56.7 | 49.9 | 38.1 | 66.4 | 38.2 | – | 24.5 | 28.7 | > 100 | 83.8 | 8.1 | 16.2 | 23.2 | 38 | 23.2 | 29.1 | 21.3 | 33.1 | 9.72 | 59.9
6 | Oc1cc2c3c(c1)CCCN3CCC2 | > 10 | > 10 | > 10 | > 10 | > 10 | – | > 10 | > 10 | > 10 | > 10 | > 10 | > 10 | > 10 | > 10 | > 10 | > 10 | > 10 | > 10 | > 10 | > 10
7 | N#CC1C(=O)SC2c3ccccc3C(=O)c3ccccc3C12 (stereo unspecified) | > 10 | > 10 | > 10 | > 10 | > 10 | – | > 10 | > 10 | > 10 | > 10 | > 10 | > 10 | > 10 | > 10 | > 10 | > 10 | > 10 | > 10 | > 10 | > 10
8 | COc1ccc2cc3[nH]c(=O)cc(O)c3cc2c1OC | > 100 | > 100 | > 100 | > 100 | > 100 | > 100 | > 100 | > 100 | > 100 | > 100 | – | – | > 100 | > 100 | > 100 | – | > 100 | – | – | –
9 | CCn1c(SCC(=O)N/N=C/c2ccccc2)nc2ccccc2c1=O | > 100 | > 100 | > 100 | > 68.8 | > 100 | – | > 100 | > 82.1 | > 100 | > 46.4 | > 100 | 27.1 | > 100 | > 91 | 41.7 | > 100 | > 100 | > 46.4 | > 29.3 | > 100
10 | Cc1cc(C)nc(NS(=O)(=O)c2ccc(NNc3c4ccccc4nc4c(C(=O)Nc5ccc(S(N)(=O)=O)cc5)cccc34)cc2)n1 | > 100 | > 100 | > 100 | > 100 | > 100 | – | > 100 | > 100 | > 100 | 46.7 | > 100 | > 100 | > 100 | > 100 | > 100 | > 100 | > 100 | > 100 | > 100 | > 100
11 | NC(N)=NS(=O)(=O)c1ccc(NNc2c3ccccc3nc3c(C(=O)Nc4ccc(S(=O)(=O)N=C(N)N)cc4)cccc23)cc1 | > 100 | 88.8 | > 100 | > 100 | > 100 | – | > 100 | > 100 | > 100 | > 100 | > 100 | > 100 | > 100 | > 100 | > 100 | > 100 | > 100 | > 100 | > 100 | > 100
12 | COC(=O)c1ccc(NC(=O)O/N=C(\Cl)C(C)C)cc1 | 3.16 | 3.66 | 29.4 | 30.2 | 12 | – | 39.3 | 32.5 | 4.47 | 31.5 | 16.1 | 31.7 | 13.9 | 10.3 | 4.35 | 8.94 | 4.02 | 19.1 | 22.8 | 16.7
13 | NC(=O)c1cc2ccc(O)cc2o/c1=N/NC(=O)c1ccccc1 | > 100 | > 100 | > 100 | > 100 | > 100 | – | > 100 | > 100 | > 100 | 91.8 | > 100 | > 100 | > 100 | > 100 | > 100 | > 100 | > 100 | > 100 | > 100 | > 100
14 | COC(=O)C1=CSC2(S1)C(C(=O)OC)=CSc1c2ssc1=O (stereo unspecified) | 3.61 | 3.45 | 3.71 | 12.8 | 6.65 | – | 5.12 | 8.47 | 4.24 | 5.92 | 6.62 | 29.7 | 5.1 | 6.13 | 2.96 | 12.9 | 3.35 | 2.89 | 4.92 | 8.35
15 | c1ccc(C2=NCCN2)c(C2=NCCN2)c1 | > 100 | > 100 | > 100 | > 100 | > 100 | – | > 100 | > 100 | > 100 | > 100 | > 100 | > 100 | > 100 | > 100 | > 100 | > 100 | > 100 | > 100 | > 100 | > 100
